In paper PMC10673563, “In Vitro and In Vivo Biological Evaluation of Indole-thiazolidine-2,4-dione Derivatives as Tyrosinase Inhibitors” (Molecules, 2023):
pIC50: −log10 of the molar value.

Molecular target: T1, Mushroom tyrosinase (Agaricus bisporus, UniProt C7FF04)
T1 construct: purchased Sigma-Aldrich (Shanghai, China)
Test: Tyrosinase inhibitory activity assay (L-DOPA, absorbance 475 nm)
Assay type: biochemical
Details: for inhibition at 32 µM: initial concentration of 32 μM
Protocol: The tyrosinase inhibitory activities of compounds 5a~5z were determined according to previous reports. In brief, 10 μL of compound was added into 140 μL of tyrosinase, incubated for 5 min at room temperature. Then, 50 μL of L-DOPA was added, followed by the measurement of absorbance change at 475 nm. The inhibition rate at different concentrations was calculated and compared to the blank control.

T1 sequence (C7FF04 1-392): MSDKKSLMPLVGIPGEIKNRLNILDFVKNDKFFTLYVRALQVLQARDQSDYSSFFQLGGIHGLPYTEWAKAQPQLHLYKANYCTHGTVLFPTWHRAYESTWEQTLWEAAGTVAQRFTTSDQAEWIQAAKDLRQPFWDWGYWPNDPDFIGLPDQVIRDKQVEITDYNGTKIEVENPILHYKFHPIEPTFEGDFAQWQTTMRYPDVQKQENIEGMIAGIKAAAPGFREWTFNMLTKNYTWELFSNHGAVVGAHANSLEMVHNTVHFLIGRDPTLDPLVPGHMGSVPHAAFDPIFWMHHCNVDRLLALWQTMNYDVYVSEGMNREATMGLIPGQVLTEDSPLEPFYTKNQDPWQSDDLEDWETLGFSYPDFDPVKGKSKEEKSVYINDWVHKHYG

Row | Structure (SMILES) | inhibition at 32 µM [%] | pIC50
1 | O=C(CN1C(=O)S/C(=C\c2ccccc2)C1=O)NCCc1c[nH]c2ccccc12 [5a] | 14.2 | 
2 | Cc1ccccc1/C=C1\SC(=O)N(CC(=O)NCCc2c[nH]c3ccccc23)C1=O [5b] | 19.3 | 
3 | Cc1cccc(/C=C2\SC(=O)N(CC(=O)NCCc3c[nH]c4ccccc34)C2=O)c1 [5c] | 33.2 | 
4 | Cc1ccc(/C=C2\SC(=O)N(CC(=O)NCCc3c[nH]c4ccccc34)C2=O)cc1 [5d] | 15.1 | 
5 | O=C(CN1C(=O)S/C(=C\c2ccccc2F)C1=O)NCCc1c[nH]c2ccccc12 [5e] | 16.5 | 
6 | O=C(CN1C(=O)S/C(=C\c2cccc(F)c2)C1=O)NCCc1c[nH]c2ccccc12 [5f] | 32.6 | 
7 | O=C(CN1C(=O)S/C(=C\c2ccc(F)cc2)C1=O)NCCc1c[nH]c2ccccc12 [5g] | 27.4 | 
8 | O=C(CN1C(=O)S/C(=C\c2ccccc2Cl)C1=O)NCCc1c[nH]c2ccccc12 [5h] | 16.8 | 
9 | O=C(CN1C(=O)S/C(=C\c2cccc(Cl)c2)C1=O)NCCc1c[nH]c2ccccc12 [5i] | 37.6 | 

Second part, the compound after the results:

Row | inhibition at 32 µM [%] | pIC50 | Structure (SMILES)
10 | 36.6 |  | O=C(CN1C(=O)S/C(=C\c2ccc(Cl)cc2)C1=O)NCCc1c[nH]c2ccccc12 [5j]
11 | 31.7 |  | O=C(CN1C(=O)S/C(=C\c2ccccc2Br)C1=O)NCCc1c[nH]c2ccccc12 [5k]
12 | > 70 | 4.88 | O=C(CN1C(=O)S/C(=C\c2cccc(Br)c2)C1=O)NCCc1c[nH]c2ccccc12 [5l]
13 | 19.5 |  | O=C(CN1C(=O)S/C(=C\c2ccc(Br)cc2)C1=O)NCCc1c[nH]c2ccccc12 [5m]
